# Measured values published in patent US11245111B2, “Stable positive side material for all-organic flow battery” (UNIVERSITY OF SOUTHERN CALIFORNIA, priority 2017, dated 2022).
# Test: Proto-desulfonation studies (heat treatment in sulfuric acid)
# Assay type: physicochemical
# Conditions: 1 M solution, 24 hours in 1M sulfuric acid at 60 degrees Celsius
# Method: Proto-Desulfonation Studies.
# We determined that the molecule was stable against proto-desulfonation, by heat treatment of 1 M solution of DHDMDS 24 hours in 1M sulfuric acid at 60 degrees Celsius. […] If decomposition occurred there would be the formation of a precipitate of an insoluble de-sulfonated material.
smiles,measurement,value
"Cc1cc(O)c(S(=O)(=O)O)c(C)c1O [DHDMBS, 2,5-dihydroxy-4,6-dimethylbenzene-1-sulfonic acid]",stability against proto-desulfonation (decomposition products observed),decomposes readily
"Cc1c(O)c(C)c(S(=O)(=O)O)c(O)c1S(=O)(=O)O [DHDMDS, 2,5-dihydroxy-4,6-dimethylbenzene-1,3-disulfonic acid]",stability against proto-desulfonation (decomposition products observed),no decomposition products
